What was measured:
[1] = molecular target: T1, DDB1-CDK12/Cyclin K ternary complex (Homo sapiens, UniProt Q16531+Q9NYV4); experiment: NanoBRET fold-change assay (HaloTag_CDK12 / NanoLuc_DDB1 in HEK293T); assay type: cell-based; conditions: 10 μM compound, 10 minutes
T1 construct: expressed in transfected cells; host or cells: HEK293T wildtype cells, transient PEI transfection
Summary of the method: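 HEK293T cells transiently co-transfected with HaloTag_CDK12 and NanoLuc_DDB1, labelled overnight with 100 nM HaloTag 618 ligand (DMSO no-ligand control), then treated with compound at 10 μM final for 10 min at room temperature. BRET read as 460 nm donor and 647 nm acceptor emission after Nano-Glo substrate; reported as fold change.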

[2] = molecular target: T1, DDB1-CDK12/Cyclin K ternary complex; experiment: NanoBRET EC50 assay (HaloTag_CDK12 / NanoLuc_DDB1 in HEK293T); assay type: cell-based; conditions: for EC50 / NanoBRET EC50 Activity Class: 10-point titration from 20 μM, HEK293T; for EC50: read-out: NanoBRET EC50 Activity Class
Protocol: This assay measures the interaction/recruitment of CDK12/Cyclin K to DDB1, mechanistically validating the molecular glue pharmacology.
HEK293T wildtype cells are seeded 800 k cells/well (DMEM+10% FBS+1% PS) in a 6-well plate and allowed to attach for ˜7 hours followed by a transient transfection of 1.5 μg HaloTag_CDK12 Plasmid [Table 1] and 0.15 μg NanoLuc_DDB1 plasmid [Table 1] per well using PEI. Cells are incubated at 37° C., 5% CO2, harvested after 24 hours and resuspended in assay media (Opti-MEM Reduced serum media, no phenol red, 4% FBS, 1% PS). Cells are adjusted to 2.3×10^5 cells/ml and treated with HaloTag 618 Ligand at 100 nM or DMSO. 8000 cells are seeded per well in triplicates per compound in a white-walled 384-well plate, one negative control treated with DMSO instead of HaloTag 618 Ligand is seeded in triplicates and the 384-well plate is incubated at 37° C., 5% CO2 overnight. Compound stock solutions are prepared in Opti-MEM−/− (Opti-MEM I Reduced serum media, no phenol red) at 8× and used to treat the cells at a final concentration of 1× at 10 μM. Cells and compounds are incubated for 10 minutes at room temperature followed by addition of NanoBRET Nano-Glo substrate following manufacturer's protocols. The plate is shaken for 30 sec followed by immediate measurement of donor emission (NanoBRET Blue at 460 nm) and acceptor emission (BRET Deep Red at 647 nm) for 0.5 s.
The assay setup is identical to “NanoBRET fold change experimental setup”. Instead of treating cells in […] with 10 μM compound, a 10-point titration starting at 20 μM is performed with a dilution factor of 1:4, covering α range of 20000 nM-0.076 nM.

KBM7 cells (wild-type) = experiment: KBM7 CTG EC50 assay (UBE2M wild-type); assay type: cell-based, human; conditions: for EC50: Homo sapiens, KBM-7, 72 h incubation, CellTiter-Glo, read-out: KBM7 CTG EC50 (UBE2M wild-type) Activity Class; for Ratio UBE2M WT to KO: ratio of anti-proliferative activity in KBM7 wild-type versus UBE2M knock-out cells (fold); for dependence of cytotoxicity on UBE2M, in words: KBM7 wild-type versus UBE2M mutant
Summary of the method: (§1)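 Wild-type KBM7 cells, or KBM7 cells with a hypomorphic UBE2M mutation that impairs Cullin-RING ligase activity, were treated for 72 h with compounds in a 10-point, 1:4 titration (0 to 20 μM). Viability was read by CellTiter-Glo 2.0 luminescence.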

[3] = tested on: KBM7 cells harboring a hypomorphic UBE2M mutation; experiment: KBM7 CTG EC50 assay (UBE2M knock-out); assay type: cell-based; conditions: Homo sapiens, KBM-7; 72 h incubation, CellTiter-Glo; read-out: KBM7 CTG EC50 (UBE2M knock-out) Activity Class
Summary of the method: as §1

CCNK = experiment: NanoLuc-CCNK degradation assay (HEK293T_Nluc_CCNK-tagged cells); assay type: cell-based; conditions: for DC50 / NanoLuc-CCNK degradation DC50 Activity Class: 4 h incubation, HEK293T_Nluc_CCNK-tagged cells; for DC50: read-out: NanoLuc-CCNK degradation DC50 Activity Class
Summary of the method: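 HEK293T cells with nanoluciferase knocked in at the N-terminus of endogenous CCNK (CRISPR) exposed to a 10-point titration (0 to 10 μM, 1:4) in Opti-MEM I + 4% FBS for 4 h. Nano-Glo substrate then added and luminescence read as a measure of Cyclin K abundance.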

T1 sequence (Q9NYV4 whole entry): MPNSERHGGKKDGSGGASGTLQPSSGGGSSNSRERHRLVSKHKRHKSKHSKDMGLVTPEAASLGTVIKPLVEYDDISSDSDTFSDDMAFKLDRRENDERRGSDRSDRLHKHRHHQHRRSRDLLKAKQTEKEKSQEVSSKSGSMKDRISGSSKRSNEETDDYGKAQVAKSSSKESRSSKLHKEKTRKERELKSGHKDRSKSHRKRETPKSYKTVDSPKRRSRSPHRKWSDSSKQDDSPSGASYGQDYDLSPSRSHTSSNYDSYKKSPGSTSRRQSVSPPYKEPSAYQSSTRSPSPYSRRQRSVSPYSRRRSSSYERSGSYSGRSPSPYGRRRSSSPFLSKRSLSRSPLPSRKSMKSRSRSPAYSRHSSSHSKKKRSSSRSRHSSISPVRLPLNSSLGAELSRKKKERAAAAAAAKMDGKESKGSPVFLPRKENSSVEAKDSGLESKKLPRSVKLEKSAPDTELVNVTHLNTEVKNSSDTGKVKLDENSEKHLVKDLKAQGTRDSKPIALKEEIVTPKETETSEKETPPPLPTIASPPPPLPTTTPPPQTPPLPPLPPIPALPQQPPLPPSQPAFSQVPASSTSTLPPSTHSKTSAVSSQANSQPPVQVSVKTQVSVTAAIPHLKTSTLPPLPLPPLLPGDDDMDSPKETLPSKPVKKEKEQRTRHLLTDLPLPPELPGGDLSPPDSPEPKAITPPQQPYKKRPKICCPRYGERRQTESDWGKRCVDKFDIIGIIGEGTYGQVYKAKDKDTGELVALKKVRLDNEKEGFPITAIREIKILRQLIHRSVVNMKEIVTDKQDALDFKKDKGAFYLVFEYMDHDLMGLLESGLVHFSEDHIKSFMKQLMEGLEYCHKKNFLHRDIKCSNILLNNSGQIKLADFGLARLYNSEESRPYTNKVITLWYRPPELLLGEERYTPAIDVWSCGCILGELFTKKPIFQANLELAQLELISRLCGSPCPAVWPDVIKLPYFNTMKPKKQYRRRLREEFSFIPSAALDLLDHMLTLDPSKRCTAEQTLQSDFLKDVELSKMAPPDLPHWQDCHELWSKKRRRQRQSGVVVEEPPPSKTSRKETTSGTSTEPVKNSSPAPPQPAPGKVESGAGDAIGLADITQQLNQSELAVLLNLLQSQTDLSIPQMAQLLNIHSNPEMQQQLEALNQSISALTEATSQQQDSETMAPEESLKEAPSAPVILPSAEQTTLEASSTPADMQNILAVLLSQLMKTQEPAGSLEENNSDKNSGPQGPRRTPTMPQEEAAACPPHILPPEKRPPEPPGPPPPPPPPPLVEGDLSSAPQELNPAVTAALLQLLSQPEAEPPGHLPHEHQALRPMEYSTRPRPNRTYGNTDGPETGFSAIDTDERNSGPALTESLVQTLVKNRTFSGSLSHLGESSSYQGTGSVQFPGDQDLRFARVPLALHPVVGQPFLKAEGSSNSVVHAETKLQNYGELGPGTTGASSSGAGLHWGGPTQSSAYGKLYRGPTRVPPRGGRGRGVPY
T1 sequence (Q16531 whole entry): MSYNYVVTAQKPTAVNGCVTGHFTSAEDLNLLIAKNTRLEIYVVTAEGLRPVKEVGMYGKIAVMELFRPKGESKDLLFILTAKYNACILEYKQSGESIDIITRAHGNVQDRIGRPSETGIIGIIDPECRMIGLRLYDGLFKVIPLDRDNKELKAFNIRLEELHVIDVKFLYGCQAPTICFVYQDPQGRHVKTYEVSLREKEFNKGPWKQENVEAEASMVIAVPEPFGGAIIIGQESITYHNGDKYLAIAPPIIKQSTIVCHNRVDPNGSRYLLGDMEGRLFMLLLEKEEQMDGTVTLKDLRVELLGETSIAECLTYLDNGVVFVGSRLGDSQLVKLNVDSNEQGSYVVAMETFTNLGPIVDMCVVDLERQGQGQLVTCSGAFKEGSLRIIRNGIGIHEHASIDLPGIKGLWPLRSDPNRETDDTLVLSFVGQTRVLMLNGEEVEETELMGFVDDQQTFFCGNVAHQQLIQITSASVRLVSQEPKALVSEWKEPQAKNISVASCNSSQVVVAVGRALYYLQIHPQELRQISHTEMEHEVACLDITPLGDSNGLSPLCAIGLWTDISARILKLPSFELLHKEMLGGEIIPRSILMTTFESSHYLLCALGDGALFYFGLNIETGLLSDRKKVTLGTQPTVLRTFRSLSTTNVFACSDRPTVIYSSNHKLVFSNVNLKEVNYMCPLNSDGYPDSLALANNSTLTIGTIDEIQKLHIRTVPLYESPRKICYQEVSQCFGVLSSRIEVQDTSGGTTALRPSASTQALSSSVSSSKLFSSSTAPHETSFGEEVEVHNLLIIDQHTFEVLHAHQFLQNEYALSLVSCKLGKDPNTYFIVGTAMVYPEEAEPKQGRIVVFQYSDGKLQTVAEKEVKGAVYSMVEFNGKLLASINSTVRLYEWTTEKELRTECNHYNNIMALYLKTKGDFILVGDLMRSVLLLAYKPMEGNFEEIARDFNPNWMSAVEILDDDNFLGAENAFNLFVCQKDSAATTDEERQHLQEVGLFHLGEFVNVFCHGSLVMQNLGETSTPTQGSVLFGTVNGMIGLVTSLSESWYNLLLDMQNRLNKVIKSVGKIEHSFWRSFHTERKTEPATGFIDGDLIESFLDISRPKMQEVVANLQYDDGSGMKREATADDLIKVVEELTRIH
T1 sequence (O75909 whole entry partner): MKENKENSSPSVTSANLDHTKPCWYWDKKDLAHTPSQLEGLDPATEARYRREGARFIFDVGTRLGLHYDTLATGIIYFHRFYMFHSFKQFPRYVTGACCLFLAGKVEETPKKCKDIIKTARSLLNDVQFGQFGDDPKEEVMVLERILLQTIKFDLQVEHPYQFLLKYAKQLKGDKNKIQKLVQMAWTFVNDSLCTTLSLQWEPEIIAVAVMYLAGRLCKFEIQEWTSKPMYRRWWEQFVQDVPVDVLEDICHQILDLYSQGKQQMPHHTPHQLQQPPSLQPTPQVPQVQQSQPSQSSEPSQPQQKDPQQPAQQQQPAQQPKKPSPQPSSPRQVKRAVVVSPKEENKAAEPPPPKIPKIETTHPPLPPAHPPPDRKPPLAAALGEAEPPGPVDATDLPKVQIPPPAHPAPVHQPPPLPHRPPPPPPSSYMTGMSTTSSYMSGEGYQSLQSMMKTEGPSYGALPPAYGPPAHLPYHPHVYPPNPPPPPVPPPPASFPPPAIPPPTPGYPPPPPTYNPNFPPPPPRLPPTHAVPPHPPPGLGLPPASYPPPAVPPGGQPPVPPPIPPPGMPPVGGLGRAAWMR

NanoBRET fold-change Activity Class [1]	activity in NanoBRET assay (ternary complex formation), in words [2]	EC50 [2]	DC50 (CCNK)	NanoLuc-CCNK degradation DC50 Activity Class (CCNK)	NanoBRET EC50 Activity Class [2]	SMILES	EC50 (KBM7 cells (wild-type))	activity in KBM7 cytotoxicity assay, in words (KBM7 cells (wild-type))	Ratio UBE2M WT to KO (KBM7 cells (wild-type))	EC50 [3]	activity in NanoLuc CCNK degradation assay, in words (CCNK)	dependence of cytotoxicity on UBE2M, in words (KBM7 cells (wild-type))
A (greater than 4-fold increase)	exceptional activity	≤ 0.25 µM	≤ 0.1 µM	–	–	COc1cc(Br)cn2cc(CC(=O)Nc3ncc(C(F)(F)F)s3)nc12 [Example 3-9, 2-(6-bromo-8-methoxyimidazo[1,2-a]pyridin-2-yl)-N-(5-(trifluoromethyl)thiazol-2-yl)acetamide]	≤ 0.25 µM	extremely potent activity	2.0	≤ 0.25 µM	exceptional activity	–
B (3-4 fold increase)	–	> 10 µM	–	B (0.50 μM≤DC50<0.10 μM)	–	O=C(CCn1cnc2ccccc2c1=O)Nc1ncc(C(F)(F)F)s1 [Example 3-63, 3-(4-oxoquinazolin-3(4H)-yl)-N-(5-(trifluoromethyl)thiazol-2-yl)propanamide]	≤ 0.25 µM	–	13.9	1 to 10 µM	–	–
A (greater than 4-fold increase)	extremely high activity	≤ 0.25 µM	≤ 0.1 µM	–	–	O=C(Cc1ccc2ncccc2c1)Nc1ncc(C(F)(F)F)s1 [Example 3-14, 2-(quinolin-6-yl)-N-(5-(trifluoromethyl)thiazol-2-yl)acetamide]	≤ 0.25 µM	extremely potent activity	–	≤ 0.25 µM	extremely high activity	–
B (3-4 fold increase)	–	–	> 10 µM	–	C (1.0 μM≤EC50<0.50 μM)	O=C(Cc1c[nH]c2ncccc12)Nc1ncc(C(F)(F)F)s1 [Example 3-38, 2-(1H-pyrrolo[2,3-b]pyridin-3-yl)-N-(5-(trifluoromethyl)thiazol-2-yl)acetamide]	0.5 to 1 µM	–	>10	> 10 µM	–	–
A (greater than 4-fold increase)	–	–	≤ 0.1 µM	–	B (0.50 μM≤EC50≤0.25 μM)	Cc1cc(N2CC(C(=O)Nc3ncc(C(F)(F)F)s3)CC2=O)ccc1F (stereo not drawn) [Example 3-17, 1-(4-fluoro-3-methylphenyl)-5-oxo-N-(5-(trifluoromethyl)thiazol-2-yl)pyrrolidine-3-carboxamide]	≤ 0.25 µM	–	17.0	0.25 to 0.5 µM	–	–
A (greater than 4-fold increase)	–	≤ 0.25 µM	≤ 0.1 µM	–	–	CC(C(=O)Nc1ncc(C(F)(F)F)s1)c1cnc2ccccc2c1 (stereo not drawn) [Example 3-35, 2-(quinolin-3-yl)-N-(5-(trifluoromethyl)thiazol-2-yl)propanamide]	≤ 0.25 µM	–	15.1	≤ 0.25 µM	–	–
A (greater than 4-fold increase)	–	> 10 µM	≤ 0.1 µM	–	–	COc1cc2ncn(CCC(=O)Nc3ncc(C(F)(F)F)s3)c(=O)c2cc1OC [Example 3-64, 3-(6,7-dimethoxy-4-oxoquinazolin-3(4H)-yl)-N-(5-(trifluoromethyl)thiazol-2-yl)propanamide]	≤ 0.25 µM	–	21.9	0.5 to 1 µM	–	–

The next lines start with the molecule.

SMILES	NanoBRET fold-change Activity Class [1]	activity in NanoBRET assay (ternary complex formation), in words [2]	EC50 [2]	DC50 (CCNK)	NanoLuc-CCNK degradation DC50 Activity Class (CCNK)	NanoBRET EC50 Activity Class [2]	EC50 (KBM7 cells (wild-type))	activity in KBM7 cytotoxicity assay, in words (KBM7 cells (wild-type))	Ratio UBE2M WT to KO (KBM7 cells (wild-type))	EC50 [3]	activity in NanoLuc CCNK degradation assay, in words (CCNK)	dependence of cytotoxicity on UBE2M, in words (KBM7 cells (wild-type))
CC(C)c1cnc(NC(=O)Cc2cn3cc(F)ccc3n2)s1 [Example 3-4, 2-(6-fluoroimidazo[1,2-a]pyridin-2-yl)-N-(5-isopropylthiazol-2-yl)acetamide]	A (greater than 4-fold increase)	–	≤ 0.25 µM	–	B (0.50 μM≤DC50<0.10 μM)	–	≤ 0.25 µM	–	82.6	1 to 10 µM	–	–
O=C(Cc1cn2cc(F)ccc2n1)Nc1cc(C(F)(F)F)[nH]n1 [Example 3-59, 2-(6-fluoroimidazo[1,2-a]pyridin-2-yl)-N-(5-(trifluoromethyl)-1H-pyrazol-3-yl)acetamide]	C (2-3 fold increase)	–	> 10 µM	> 10 µM	–	–	0.25 to 0.5 µM	–	>10	> 10 µM	–	–
Cc1cc(NC(=O)Cc2coc3c(C)c(C)ccc23)n[nH]1 [Example 3-44, 2-(6,7-dimethylbenzofuran-3-yl)-N-(5-methyl-1H-pyrazol-3-yl)acetamide]	A (greater than 4-fold increase)	–	≤ 0.25 µM	–	B (0.50 μM≤DC50<0.10 μM)	–	≤ 0.25 µM	–	34.4	0.25 to 0.5 µM	–	–
Cc1ccc2c(CC(=O)Nc3cc(C(F)(F)F)[nH]n3)coc2c1C [Example 3-48, 2-(6,7-dimethylbenzofuran-3-yl)-N-(5-(trifluoromethyl)-1H-pyrazol-3-yl)acetamide]	B (3-4 fold increase)	–	–	–	B (0.50 μM≤DC50<0.10 μM)	B (0.50 μM≤EC50≤0.25 μM)	≤ 0.25 µM	–	15.7	0.5 to 1 µM	–	–
Cc1ccc2c(CC(=O)Nc3cc(C(C)C)[nH]n3)coc2c1C [Example 3-45, 2-(6,7-dimethylbenzofuran-3-yl)-N-(5-isopropyl-1H-pyrazol-3-yl)acetamide]	A (greater than 4-fold increase)	–	–	≤ 0.1 µM	–	B (0.50 μM≤EC50≤0.25 μM)	≤ 0.25 µM	–	18.6	≤ 0.25 µM	–	extremely high dependence
Cc1ccc2c(CC(=O)Nc3cc(Br)[nH]n3)coc2c1C [Example 3-47, N-(5-bromo-1H-pyrazol-3-yl)-2-(6,7-dimethylbenzofuran-3-yl)acetamide]	A (greater than 4-fold increase)	–	–	≤ 0.1 µM	–	B (0.50 μM≤EC50≤0.25 μM)	≤ 0.25 µM	–	15.7	0.5 to 1 µM	–	–
Cc1ccc2c(CC(=O)Nc3ncc(C4CC4)s3)coc2c1C [Example 3-42, N-(5-cyclopropylthiazol-2-yl)-2-(6,7-dimethylbenzofuran-3-yl)acetamide]	A (greater than 4-fold increase)	–	–	≤ 0.1 µM	–	C (1.0 μM≤EC50<0.50 μM)	≤ 0.25 µM	–	8.5	≤ 0.25 µM	–	–
O=C(Cc1cn2cc(Cl)ccc2n1)Nc1cc(C2CC2)[nH]n1 [Example 3-66, N-(5-cyclopropyl-1H-pyrazol-3-yl)-2-(6-chloroimidazo[1,2-a]pyridin-2-yl)acetamide]	A (greater than 4-fold increase)	particularly exceptional	≤ 0.25 µM	≤ 0.1 µM	–	–	≤ 0.25 µM	–	388.0	≤ 0.25 µM	particularly exceptional	very strong dependence
Cc1ccc2c(CC(=O)Nc3ccc(C(C)C)cn3)coc2c1C [Example 3-51, 2-(6,7-dimethylbenzofuran-3-yl)-N-(5-isopropylpyridin-2-yl)acetamide]	B (3-4 fold increase)	–	–	–	D (10 μM≤DC50<1.0 μM)	C (1.0 μM≤EC50<0.50 μM)	1 to 10 µM	–	>8	> 10 µM	–	–
